According to patent publication US20230081986A1, “METHOD AND REAGENTS TO IMPROVE NONANIMAL OCULAR TOXICITY TESTS” (Lebrun Labs LLC, priority 2021, published 2023):

How the values were obtained:
[1] = system: food-source rabbit eyes (cornea); conditions: for Prediction EPA: EPA prediction model from direct and metabolic results; for Prediction GHS: GHS prediction model from direct and metabolic results
Source text: FIG. 3 depicts the EPA and GHS prediction models. […] Meta. = Metabolic; GHS = Globally Harmonized System of Classification and Labeling of chemicals; EPA = Environmental Protection Agency; NC = Not Classified; * = Apical death of epithelium of at least 10%; must be a clear line of nuclei.
(§1) Because of these modifications, we have updated our prediction model to include the metabolic test to identify reversible irritants or toxicity as shown in FIG. 3. For GHS (A) and EPA (B) classification systems, if the direct procedure (100 µL, washed after 1 minute exposure with 20 mL tear solution using a blunt end syringe 2-5 cm from cornea to create a laminar flow across the tissue) is negative, the metabolic result is used to confirm the negative result or identify reversible irritants or toxicity (GHS 2 or EPA II) if increased DoI is detected. […] For the GHS classification system, the NC is defined by no stromal DoI and a negative metabolic test.

[2] = system: food-source rabbit eyes (cornea); conditions: 100 µL, 1 minute exposure, tear solution wash, 24 hours organ culture
Experimental: as §1
Only food source eyes are suitable for this procedure.
3) Put the lid onto the 12 well plate(s) and place into the incubator (37° C., 5% CO2) for one hour.
3) Place an eye on the holder and carefully place a new cloning ring in the middle of the cornea without scratching it.
9) Start the timer for one minute.
10) After the one minute is over, remove the dosing ring and put in the proper container, and pick up the tissue without touching the cornea and hold it over the container for liquid waste.

[3] = system: rabbit eye (cornea, iris, and conjunctiva); conditions: Lebrun et al., cited from earlier work; for in vivo EPA: EPA classification, 2020 / NICEATM, 2006; for in vivo GHS: GHS classification, 2020
[4] = system: food-source rabbit eyes (cornea); conditions: 6 minutes, 100 µL tear solution then 100 µL test material; run only where Direct was 0%
Experimental: All of the steps of the META test are the same as the direct test except for the dosing step. For the META, 100 µL of tear solution (saline with ascorbic acid, protein) is first added to the dosing ring, followed by the addition of 100 µL of the material to be tested.
as §1
NOTE: The steps of the main procedure are the same as described above. The only deviations are described below and apply to the dosing of the corneas and interpretation of results. • 1) After the pre-incubation, remove the 12 well plate(s) from the incubator and place in the hood. • 2) Using a skinny sharpie, label the wells on the lid (water or specific chemical). • 3) Place an eye on the holder and carefully place a new cloning ring in the middle of the cornea without scratching it. • 4) Remove the needle from the syringe by twisting it off. Fill the syringe with 40 mL of 1x PBS by aliquoting it from the beaker. • 5) Put the needle back on the syringe by twisting on and remove the cap protecting the needle. Place the syringe flat on a sterile piece of foil. • 6) Obtain the timer. Add 100 uL of the T8 tear solution in the center of the dosing ring. Ensure the entire surface is covered. • 7) Retrieve 100 uL of the sample and aspirate in the center of the dosing ring, ensuring the entire surface is exposed.

[5] = literature review [11]; cited from earlier work
rabbit cornea = test: Cornea exposure for different times, with and without the esterase inhibitor ebelactone; conditions: for state of the cornea: 6-minute exposure
Experimental: FIG. 2 depicts the effects of ebelactone on rabbit cornea.
To test this hypothesis, we incubated corneas with 100 µL of the test chemical for different exposure times and observed that methyl cyanoacetate produced a toxic effect on the eye after 6 minutes of exposure. To confirm that this increased toxicity was metabolically related, eyes were treated with ebelactone, an inhibitor of nonspecific esterases. […] Based on these findings, we updated the IVD EIT method to include the following: Each chemical is first tested using a direct 1-minute application to the eye; if negative, the chemical is then retested for 6 minutes using the metabolic test (META). All of the steps of the META test are the same as the direct test except for the dosing step. For the META, 100 µL of tear solution (saline with ascorbic acid, protein) is first added to the dosing ring, followed by the addition of 100 µL of the material to be tested.

| SMILES | Prediction EPA [1] | Prediction GHS [1] | Direct (depth of injury, stromal) [2] [%] | in vivo EPA [3] | in vivo GHS [3] | Meta. (Metabolic) [4] | classification by most nonanimal tests [5] | state of the cornea (rabbit cornea; in the presence of ebelactone) | state of the cornea (rabbit cornea; without ebelactone) | effect on the eye (rabbit cornea; 100 µL, after 6 minutes of exposure) |
| --- | --- | --- | --- | --- | --- | --- | --- | --- | --- | --- |
| O=C(Cl)c1c(Cl)cccc1Cl [2,6-Dichlorobenzoyl chloride] | II (category II includes damage greater than 15% but less than 25% (or is positive for cell death by the metabolic test)) | 2 (Category 2 is identified by any stromal DoI up to 18% or a positive metabolic test) | 0.0 | II (II (damage is reversed within 21 days of exposure)) | 2A (2 A, irritation effects are reversed within 21 days) | Pos. |  |  |  |  |
| CC(C)=O [Acetone] | II (category II includes damage greater than 15% but less than 25% (or is positive for cell death by the metabolic test)) | 2 (Category 2 is identified by any stromal DoI up to 18% or a positive metabolic test) | 0.0 | II (II (damage is reversed within 21 days of exposure)) | 2A (2 A, irritation effects are reversed within 21 days) | Pos. |  |  |  |  |
| COC(=O)CC#N [methyl cyanoacetate] |  |  |  |  |  |  | misclassified as FN | somewhat swollen but there are mostly viable cells | swollen with no viable cells | toxic effect |
